tested on: SK-OV-3; assay: Cytotoxicity against human SKOV3 cells after 72 hrs by WST8 assay; assay type: functional, cell-based; details: SK-OV-3, 72 h

Point of comparison: `CCC(O[C@H]1CC[C@H](O[C@H]2CC[C@H](O)[C@@H](C)O2)[C@@H](C)O1)C(C)C(O)C(C)C(O)C(C)C1C/C=C/C=C/C(O)CC(O)C(C)C(O)CC(O)C(C)C2CC(O)C(O)C(O)(CC(O[C@@H]3O[C@H](C)[C@@H](O)[C@H](O[C@H]4C[C@@H](O)[C@H](O)[C@@H](C)O4)[C@H]3O[C@@H]3O[C@H](C)[C@@H](O)[C@H](O)[C@H]3O)C(C)CCC(O)CC(O)C/C=C/C=C/C(=O)O1)O2` (stereo partly drawn), IC50 300 nM. Against it:
- CCC(O[C@H]1CC[C@H](O[C@H]2CC[C@H](O)[C@@H](C)O2)[C@@H](C)O1)C(C)C(O)C(C)C(O)C(C)C1C/C=C/C=C/C(O)CC(O)C(C)C(O)CC(O[C@@H]2O[C@H](CO)[C@H](O)[C@H](O)[C@H]2NC(C)=O)C(C)C2CC(O)C(O)C(O)(CC(O[C@@H]3O[C@H](C)[C@@H](O)[C@H](O[C@H]4C[C@@H](O)[C@H](O)[C@@H](C)O4)[C@H]3O[C@@H]3O[C@H](C)[C@@H](O)[C@H](O)[C@H]3O)C(C)CCC(O)CC(O)C/C=C/C=C/C(=O)O1)O2 (stereo partly drawn) — within 1.5-fold, 400 nM
- COc1cccc2c1C(=O)c1c(O)c3c(c(O)c1C2=O)C[C@@](O)(C(=O)CO)C[C@@H]3O[C@H]1C[C@H](N)[C@H](O)[C@H](C)O1 [DOXORUBICIN] — 10-fold lower, 30 nM

From ChEMBL document CHEMBL2151020, “JBIR-129 and -139, cytotoxic 34-membered polyol macrolides of microbial origin” (J Nat Prod, 2012)
